Experimental data taken from US5298523A, “Method for treating transplant patients using mycalamide compounds” (priority 1992, dated 1994).
Entries after “also recorded” stand apart in the source; their conditions may differ.

How the values were obtained:
[1] = tested on: graft vs. host reaction, CB6F1 mice grafted with BALB/c splenocytes; experiment: Graft vs. host reaction (Simonsen splenomegaly assay); format: in vivo, mouse; conditions: Experiment #2, 0.2 mg/kg i.p., Days 1-7
Method: Graft vs. host reaction. In vivo studies with mycalamide A utilized the […]→F1, GVHR model (Simonsen splenomegaly assay). CB6F1 male mice, 4 weeks of age, were injected intraperitoneally with 5×10^7 splenocytes from BALB/c male mice, 8 weeks of age, on day 0 (BALB/c→CB6F1). A syngeneic control group (CB6F1 →CB6F1) was similarly prepared and served as the negative control. For experiment 1, the grafted mice were divided into 5 treatment groups of 5 mice each. Groups were injected intraperitoneally with mycalamide A (dissolved initially in ethanol followed by dilution in sterile phosphate-buffered saline as a vehicle) or vehicle alone on days 1-7. For experiment 2, the grafted mice were divided into 7 treatment groups of 5 mice each and similarly injected intraperitoneally with mycalamide A, an immunosuppressive standard, didemnin B, or vehicle alone on days 1-7. On day 7 all groups were sacrificed, spleens excised, and the mean spleen weight and stimulation index calculated for each group. The stimulation index was calculated as follows: [formula] A spleen index of 1.3 or greater is considered a positive response.
^a CB6F1 mice (5 per group) were grafted with 5 × 10^7
BALB/c splenocytes, intraperitoneally on Day 0. Groups were injected
intraperitoneally with drug or vehicle on Days 1-7. Positive indicates
grafted mice receiving vehicle alone.
^b Number of surviving mice at the end of the experiment.
^c Stimulation index (SI) = (spleen weight of test group/body weight
of test group)/(spleen weight of syngeneic group/body weight of syngeneic
^d Suppression = [(SI of positive control) (SI of test group)]/[(SI
of positive control) (SI of syngeneic group)].
^e Didemnin B immunosuppressive standard.

murine CD4^+ T cells [2] = experiment: Activation of CD4+ T cells by anti-CD3 mAb/mB7; format: cell-based, murine (BALB/c); conditions: anti-CD3/mB7
Method: (§1) (A) Costimulation of T cells with anti-CD3 mAb and mB7. […] (B) Costimulation of T cells with mB7 and PMA. […] All cultures were incubated for 48 hours and pulsed with 1 μCi [ ^3 H] thymidine/well for the last 6 hours of the incubation period to assay for T cell proliferation.
(§2) (A) Costimulation of T cells with anti-CD3 mAb and mB7. 2×10^5 purified BALB/c CD4^+ T lymphocytes were stimulated with the indicated concentrations of anti-CD3 mAb in the presence of medium (.largecircle.), 2×10^4 paraformaldehyde-fixed CHO-mB7 cells (.quadrature.), or 2×10^4 paraformaldehyde-fixed CHO-mB7 cells in the presence of 0.1 nM FK506 (.gradient.), 1 nM FK506 (Δ), or 10 nM FK506 ( ). (B) Costimulation of T cells with mB7 and PMA. 2×10^5 purified BALB/c CD4^+ T lymphocytes were stimulated with the indicated concentrations of PMA and either medium (.largecircle.), 2×10^4 paraformaldehyde-fixed CHO-mB7 cells (.quadrature.), or paraformaldehyde-fixed CHO-mB7 cells in the presence of 0.1 nM FK506 (.gradient.), 1 nM FK506 (Δ), or 10 nM FK506 ( ). All cultures were incubated for 48 hours and pulsed with 1 μCi [^3 H] thymidine/well for the last 6 hours of the incubation period to assay for T cell proliferation.
as §2, with “pM mycalamide A” for “nM FK506”
mB7-mediated activation of murine CD4^+ T cells. Mouse T cells were purified as follows: splenocytes were depleted of red blood cells by treatment with Tris-NH4 Cl. T cells were enriched by nylon wool fractionation. CD4^+ T cells from BALB/c mice were purified by two-fold treatment with a mixture of anti-MHC Class II and anti-CD8 monoclonal antibodies and rabbit complement. Chinese hamster ovary cells (CHO) and CHO cells transfected with the murine B7 molecule (CHOmB7) were fixed with 1% paraformaldehyde prior to addition to the cultures. Microcultures were set up in duplicate 96-well plates. […] All cultures were incubated for 48 hours and pulsed with 1 μCi ^3 H-thymidine/well for the last 6 hours of the incubation period to assay for T cell proliferation.

murine CD4^+ T cells [3] = experiment: Activation of CD4+ T cells by PMA/mB7; format: cell-based, murine (BALB/c); conditions: in words
Method: as §1, §2
(A) Costimulation of T cells with anti-CD3 mAb and mB7. […]

[4] = T cell viability by trypan blue exclusion; format: cell-based, murine; conditions: t cells; 1 nM, Experiment 1, 20 hours; read-out: percentage of trypan blue-positive cells
Method: (§3) Determination of mycalamide A toxicity. The toxicity of mycalamide A on murine splenocytes and human PBL was determined using a colorimetric assay, based on the ability of viable cells to convert the colorless tetrazolium salt, 3-(4,5-dimethylthiazol-2yl)-2,5-diphenyl tetrazolium bromide (MTT) to a colored formazan product and trypan blue exclusion. For the colorimetric assay, a volume of 0.075 ml of an MTT solution (550 μg/ml of MTT in TCM) was added to test and control wells containing one of the populations of splenocytes or test wells and incubated for 5-6 hours following the initial incubation period. Microtiter plates were centrifuged at 100× g, supernatants carefully removed, and a volume of 0.20 ml of isopropyl alcohol was added to each well to dissolve the formazan crystals. The absorbance at 570 nm was determined for each well using an ELISA plate reader. […] As an additional parameter of toxicity, wells containing cultured lymphocytes with various dilutions of mycalamide A were examined with trypan blue, and the percentage of dye-excluding (viable) cells was determined.
(§4) Compounds were added as indicated. Cells were harveste
(§5) Each data point represents the mean value o

T cells = experiment: T cell viability by trypan blue exclusion; format: cell-based, murine; conditions: 1 nM
Method: as §3, §4, §5

Structure (SMILES)	% Suppression [1] [%]	Number of surviving mice at the end of the experiment [1]	Stim. index [1]	potency compared to CsA (murine CD4^+ T cells [2]; FK506 vs CsA)	effect on anti-CD3/mB7 activation of CD4+ cells (murine CD4^+ T cells [2]; in words)	effect on PMA/CHO-mB7 stimulation of CD4+ cells (murine CD4^+ T cells [3])	cytotoxicity at 20 h, 0.001 µM [4] [%]	number of cells excluding trypan blue (T cells; Experiment 1, 20 hours)	number of cells excluding trypan blue (T cells; Experiment 2, 20 hours)	percentage of trypan blue-positive cells (T cells; Experiment 2, 20 hours) [%]
CC[C@H](C)[C@H]1NC(=O)[C@@H](NC(=O)[C@@H](CC(C)C)N(C)C(=O)[C@@H]2CCCN2C(=O)C(C)O)[C@@H](C)OC(=O)[C@H](Cc2ccc(OC)cc2)N(C)C(=O)[C@@H]2CCCN2C(=O)[C@H](CC(C)C)NC(=O)[C@@H](C)C(=O)[C@H](C(C)C)OC(=O)C[C@@H]1O (stereo partly shown) [Didemnin B, didemnin B, reference compound]	113	5/5	0.93							
C=CC[C@@H]1/C=C(\C)C[C@H](C)C[C@H](OC)[C@H]2O[C@@](O)(C(=O)C(=O)N3CCCC[C@H]3C(=O)O[C@H](/C(C)=C/[C@@H]3CC[C@@H](O)[C@H](OC)C3)[C@H](C)[C@@H](O)CC1=O)[C@H](C)C[C@@H]2OC [FK506, reference compound]				approximately 100 times	parallel those of CsA; also recorded: blocks the anti-CD3/mB7 activation of CD4^+ cells	not affected	< 2	1.40 × 10^6 cells	1.64 × 10^6 cells	< 2
